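48-hour exposure; five concentrations; linearly interpolated endpoints. TGI marks complete inhibition of growth.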

We go through 6 compounds from PubChem BioAssay (NCI).

Test systems include TK-10 renal; SK-MEL-5 melanoma; SK-MEL-28 melanoma; SK-MEL-2 melanoma; CCRF-CEM leukemia; UO-31 renal; HOP-92 NSCLC; OVCAR-3 ovarian; LOX IMVI melanoma; IGROV1 ovarian; HCT-15 colon; KM12 colon; OVCAR-8 ovarian; ACHN renal; UACC-257 melanoma; HS 578T breast; MALME-3M melanoma; SK-OV-3 ovarian; NCI-H522 lung; SW-620 colon.
Common to all, as to experiment: NCI tumour cell line growth inhibition, 48 h

Regarding `Nc1ccc2c(=S)c3ccccc3[nH]c2c1`, the TGI was above 100 µM with TK-10 renal; above 100 µM with SK-MEL-5 melanoma; above 100 µM with SK-MEL-28 melanoma; above 100 µM in the assay on SK-MEL-2 melanoma; above 95.4 µM in the assay on CCRF-CEM leukemia; above 100 µM in the assay with UO-31 renal. Besides, the TGI in the assay with HOP-92 NSCLC is 98.9 µM; in the assay with OVCAR-3 ovarian, above 100 µM; with LOX IMVI melanoma, above 100 µM; with IGROV1 ovarian, above 100 µM; with HCT-15 colon, above 100 µM; in the assay with KM12 colon, above 100 µM. Besides, the TGI with OVCAR-8 ovarian was above 100 µM; with ACHN renal it was above 100 µM; in the assay on UACC-257 melanoma, above 100 µM; in the assay with HS 578T breast it was above 100 µM; in the assay on MALME-3M melanoma, above 100 µM; in the assay with SK-OV-3 ovarian, 98.5 µM. The TGI is 79.2 µM in the assay on NCI-H522 lung and above 100 µM in the assay on SW-620 colon.
Regarding `NC(CCC(=O)O)C(=O)NC(Cc1ccc(N(CCCl)CCCl)cc1)C(=O)O` (stereo not given), the TGI in the assay with TK-10 renal, in the assay with SK-MEL-5 melanoma, with SK-MEL-28 melanoma, in the assay with SK-MEL-2 melanoma, in the assay with CCRF-CEM leukemia and in the assay on UO-31 renal was above 100 µM throughout. In addition, the TGI in the assay with HOP-92 NSCLC, in the assay with OVCAR-3 ovarian, in the assay on LOX IMVI melanoma, in the assay on IGROV1 ovarian, in the assay on HCT-15 colon and in the assay with KM12 colon was above 100 µM throughout. Moreover, the TGI in the assay with OVCAR-8 ovarian, in the assay with ACHN renal, with UACC-257 melanoma, in the assay on HS 578T breast, in the assay on MALME-3M melanoma and in the assay with SK-OV-3 ovarian was above 100 µM in each case. Further, the TGI with NCI-H522 lung and in the assay on SW-620 colon was above 100 µM in each case.
As for `COC(=O)c1c(C)cccc1C1CN=NC12Cc1cc(C)c(C)cc1C2=O` (stereo not given), the TGI with TK-10 renal is above 100 µM; in the assay with SK-MEL-5 melanoma it was 46.3 µM; in the assay on SK-MEL-28 melanoma, above 100 µM; in the assay on SK-MEL-2 melanoma, above 100 µM; in the assay with CCRF-CEM leukemia it was above 100 µM; in the assay with UO-31 renal, above 100 µM. For the same compound, the TGI with HOP-92 NSCLC is above 100 µM; in the assay with OVCAR-3 ovarian it was above 100 µM; in the assay on LOX IMVI melanoma it was 67.9 µM; with IGROV1 ovarian, above 100 µM; in the assay with HCT-15 colon it was above 100 µM; in the assay on KM12 colon it was above 100 µM. Moreover, the TGI in the assay with OVCAR-8 ovarian, with ACHN renal, in the assay with UACC-257 melanoma, in the assay with HS 578T breast, with MALME-3M melanoma and with SK-OV-3 ovarian was above 100 µM each time. Also, the TGI with NCI-H522 lung is 54.6 µM; with SW-620 colon it was above 100 µM.
In the case of `O=C1CSC(c2cc3cc(Br)ccc3nc2Cl)N1c1ccc(Cl)cc1` (stereo not given), the TGI with TK-10 renal was 70.7 µM; with SK-MEL-5 melanoma it was 37.9 µM; in the assay on SK-MEL-28 melanoma, above 100 µM; in the assay on SK-MEL-2 melanoma, 32.2 µM; with CCRF-CEM leukemia, 97.6 µM; in the assay with UO-31 renal it was above 100 µM. Further, the TGI in the assay on HOP-92 NSCLC was above 100 µM; in the assay on OVCAR-3 ovarian it was 41.3 µM; in the assay with LOX IMVI melanoma it was 33.7 µM; in the assay with IGROV1 ovarian it was above 100 µM; with HCT-15 colon it was 88.8 µM; in the assay on KM12 colon it was 47.6 µM. Also, the TGI was above 100 µM with OVCAR-8 ovarian; above 100 µM with ACHN renal; 42.5 µM in the assay with UACC-257 melanoma; above 100 µM in the assay with HS 578T breast; 75.8 µM in the assay with MALME-3M melanoma; above 100 µM with SK-OV-3 ovarian. The TGI in the assay on NCI-H522 lung is 57.3 µM; in the assay on SW-620 colon, above 100 µM.
Take `COc1cc(S(=O)(=O)Nc2nc(-c3ccc(N=Cc4ccccc4O)cc3)cs2)ccc1Cl`: the TGI was above 100 µM in the assay on TK-10 renal; 71.5 µM in the assay with SK-MEL-5 melanoma; above 100 µM in the assay with SK-MEL-28 melanoma; above 100 µM with SK-MEL-2 melanoma; above 100 µM with CCRF-CEM leukemia; above 100 µM with UO-31 renal. The TGI in the assay with HOP-92 NSCLC, with OVCAR-3 ovarian, in the assay with LOX IMVI melanoma, with IGROV1 ovarian, in the assay with HCT-15 colon and in the assay with KM12 colon was above 100 µM each time. The TGI in the assay with OVCAR-8 ovarian, in the assay with ACHN renal, in the assay with UACC-257 melanoma, in the assay with HS 578T breast, with MALME-3M melanoma and with SK-OV-3 ovarian was above 100 µM throughout. The TGI with NCI-H522 lung and with SW-620 colon was above 100 µM throughout.
Take `CC(=O)Oc1ccc(-c2nnc(-c3ccc(OC(C)=O)cc3)nn2)cc1`: the TGI in the assay with TK-10 renal, in the assay on SK-MEL-5 melanoma, in the assay on SK-MEL-28 melanoma, with SK-MEL-2 melanoma, in the assay with CCRF-CEM leukemia and in the assay on UO-31 renal was above 100 µM throughout. Besides, the TGI with HOP-92 NSCLC, with OVCAR-3 ovarian, in the assay on LOX IMVI melanoma, in the assay with IGROV1 ovarian, in the assay on HCT-15 colon and in the assay with KM12 colon was above 100 µM throughout. Further, the TGI with OVCAR-8 ovarian, with ACHN renal, in the assay on UACC-257 melanoma, with HS 578T breast, with MALME-3M melanoma and with SK-OV-3 ovarian was above 100 µM throughout. The TGI in the assay on NCI-H522 lung and with SW-620 colon was above 100 µM each time.
